The numbers were not newly measured in patent publication US20040029723A1, “Novel aminophosphonium compounds” (Clariant GmbH, priority 1999, published 2004), which cites them from elsewhere.

The conditions of the data set: background statement, no test or data described.

Consider `CCN(CC)[P+](N(CC)CC)(N(CC)CC)N(CC)CC.[Br-]` [Tetrakis(diethylamino)phosphonium Bromide], for which the dermal toxicity entry is “very high”.
